Consider 2 compounds from publication PMC3612465 (International Journal of Alzheimer's Disease, 2013).

Data set [1] deals with Aβ40, Aβ42. More on the design: species or system TgCRND8 mouse. The following applies: mouse, in vivo, po, 100 mg/kg.
In data set [2] the test system is Aβ40. The data set can be described thus: Acute Aβ lowering in nontransgenic B6C3F1 mice. Format: in vivo, nontransgenic B6C3F1 mouse. The conditions noted are these: 3 hr.
Data set [3] relates to Aβ40, Aβ42. The conditions noted are these: TgCRND8, single oral 30 mg/kg, 8 hr after dose. An excerpt: (§1) Plasma and cortex Aβ42 were quantified in select TgCRND8 studies using biotin-4G8 and S-tag G2-11 and 4G8 antibodies.
The test system of data set [4] is Aβ40, Aβ42. Also noted: species or system TgCRND8 mouse. The conditions noted are these: mouse, in vivo.
Excerpt: as §1

Data set [5] has as its system Aβ40. The data set can be described thus: Subchronic (11 days q.d. or 6 days b.i.d.) Aβ lowering in nontransgenic mice. In kind it is in vivo, nontransgenic B6C3F1 mouse.
Data set [6] deals with HES-1, mATH1, KLF4 gene expression. The data set can be described thus: Notch pathway biomarker gene expression in jejunum (RT-PCR). Format: in vivo, nontransgenic B6C3F1 mouse. The following applies: nontransgenic mice. An excerpt:
The jejunum was harvested, rinsed, and flash frozen in liquid nitrogen until later analyses. RNA was isolated from tissues using the Trizol reagent (Molecular Research Center, Inc.) followed by purification over an RNAeasy column (Qiagen).
RNA was purified over an RNAeasy column.

For data set [7], the system named is Aβ40. The conditions noted are these: rat, single oral dose 10-100 mg/kg, 3 hr.
In data set [8] the test system is Aβ; Notch-related toxicity. Also noted: method as in PMID 21190552. The conditions noted are these: 7 days of b.i.d. dosing, cited from earlier work.

Where two headings read alike, the source gives them in different places.

In the case of `O=C(OC1([C@H]2CCC[C@@H](c3cc(F)cc(F)c3)N2S(=O)(=O)c2ccc(Cl)cc2)CC1)N1CCN(CCO)CC1` (relative stereo) [SCH 697466, 1-[cis-1-[(4-chlorophenyl)sulfonyl]-6-(3,5-difluorophenyl)-2-piperidinyl]cyclopropyl 4-(2-hydroxyethyl)-1-piperazinecarboxylate], in the data set with Aβ40, Aβ42 [1], the “cortex Aβ40 reduction” value worked out at 55% and the “cortex Aβ42 reduction” value is on record as 47%. The “cortex Aβ lowering” value in the data set with Aβ40 [2] (single oral 100 mg/kg) is listed as “Near complete lowering”. Also, in the data set with Aβ40 [2] (single oral 10, 30 and 100 mg/kg, P < 0.005), the “cortex Aβ lowering” value is listed as “significant lowering”. Moreover, in the data set with Aβ40, Aβ42 [3], the “cortex Aβ40 lowering” value is recorded as 82% and the “cortex Aβ42 lowering” value was 42%. Moreover, in the data set on Aβ40, Aβ42 [4], the “cortex Aβ40 reduction” value amounted to 98%, the “cortex Aβ42 reduction” value worked out at 66%, the “cortex Aβ reduction” value was 48% and the “reduction of Aβ at partial inhibition dose” value was ~ 50%. Besides, the “dose giving 50% lowering of cortical Aβ” value in the data set on Aβ40 [5] (nontransgenic mice, 11 days q.d. and 6 days b.i.d.) was “around 30 mg/kg”. The “increase in Aβ in the cortex” value in the data set with Aβ40 [5] (nontransgenic mice, 11 days q.d. and 6 days b.i.d., 3-100 mg/kg) is “no evidence of an increase”. Further, the “continuous inhibition of Aβ with q.d. dosing” value in the data set with Aβ40 [5] (q.d. dosing (100 mg/kg), without Notch-related side effects) is above 80%. Further, the “mATH1 expression in the jejunum” value in data set [6] (100 mg/kg 6 days b.i.d., P < 0.04) is on record as “increased expression”. Further, in data set [6] (100 mg/kg, 11 days q.d. and 6 days b.i.d., P < 0.02), the “HES-1 expression in the jejunum” value was “significant decreases”. The “KLF4 expression in the jejunum” value in data set [6] (30 and 100 mg/kg 6 days b.i.d., P < 0.04) was “increased expression”. In addition, the “mATH1 and KLF expression in the jejunum” value in data set [6] (11 day q.d. groups) is “unchanged”. For the same compound, the “cortex Aβ40 reduction (plateau)” value with Aβ40 [7] is recorded as “about 60%”.
Consider `O=S(=O)(c1ccc(Cl)cc1)N1[C@@H]2CCC[C@H]1c1cn[nH]c1C2` [ELN 475516], for which the “lowering of Aβ” value in data set [8] (sustained but incomplete) is recorded as ~ 74%. In addition, the “Notch-related toxicity (thymus weight, goblet cell hyperplasia in the ileum)” value in data set [8] is recorded as “no evidence of Notch-related toxicity”.
